Measurements from ChEMBL document CHEMBL2062430, “Set-up of a new series of HDAC inhibitors: the 5,11-dihydrodibenzo[b,e]azepin-6-ones as privileged structures” (Bioorg Med Chem Lett, 2012).

Key:
[1] = molecular target: T1, Histone deacetylase (Homo sapiens) (UniProt Q13547+O15379+Q9UBN7+Q92769+Q9UQL6+Q8WUI4+Q9BY41+Q96DB2+P56524+Q9UKV0+Q969S8); conditions: HeLa, at 0.01 µM
Description: Inhibition of HDAC in human HeLa cell extracts using Fluor de Lys as substrate at 0.01 uM by fluorescence assay

[2] = molecular target: T1, Histone deacetylase (Homo sapiens); conditions: HeLa, at 0.1 µM
Description: Inhibition of HDAC in human HeLa cell extracts using Fluor de Lys as substrate at 0.1 uM by fluorescence assay

[3] = molecular target: T1, Histone deacetylase (Homo sapiens); conditions: HeLa, at 1 µM
Description: Inhibition of HDAC in human HeLa cell extracts using Fluor de Lys as substrate at 1 uM by fluorescence assay

HCT-116 = assay: Antiproliferative activity against human HCT116 cells after 5 days by Alamar Blue assay; format: functional, cell-based; conditions: HCT-116, 120 h
Histone deacetylase = assay: Inhibition of HDAC in human HeLa cell extracts using Fluor de Lys as substrate by fluorescence assay; format: protein assay

SMILES: O=C(CCCCCN1C(=O)c2ccccc2Cc2ccccc21)NO
- inhibition [1]: 21%
- inhibition [2]: 67%
- inhibition [3]: 84%
- IC50 (HCT-116): 710 nM
- IC50 (Histone deacetylase): 42 nM

SMILES: O=C(CCCCN1C(=O)c2ccccc2Cc2ccccc21)NO
- inhibition [1]: < 20%
- inhibition [2]: < 20%
- inhibition [3]: 29%

SMILES: O=C(CCCCCN1C(=O)c2ccccc2C(F)(F)c2ccccc21)NO
- inhibition [1]: < 20%
- inhibition [2]: 50%
- inhibition [3]: 78%
- IC50 (HCT-116): 600 nM
- IC50 (Histone deacetylase): 111 nM

SMILES: O=C(CCCCCN1C(=O)c2ccccc2C(O)c2ccccc21)NO (centres undefined)
- inhibition [1]: 21%
- inhibition [2]: 58%
- inhibition [3]: 81%
- IC50 (HCT-116): 2000 nM
- IC50 (Histone deacetylase): 60 nM

SMILES: COC1(OC)c2ccccc2C(=O)N(CCCCCC(=O)NO)c2ccccc21
- inhibition [1]: < 20%
- inhibition [2]: < 20%
- inhibition [3]: 42%

SMILES: O=C(CCCCCn1c(=O)c2ccccc2c(=O)c2ccccc21)NO
- inhibition [1]: 11%
- inhibition [2]: 47%
- inhibition [3]: 77%
- IC50 (HCT-116): > 1000 nM
- IC50 (Histone deacetylase): 153 nM

SMILES: O=C(CCCN1C(=O)c2ccccc2Cc2ccccc21)NO
- inhibition [1]: < 20%
- inhibition [2]: < 20%
- inhibition [3]: < 20%

SMILES: O=C(CCCCCN1C(=O)c2ccccc2C(F)c2ccccc21)NO (centres undefined)
- inhibition [1]: < 20%
- inhibition [2]: 62%
- inhibition [3]: 84%
- IC50 (HCT-116): 1600 nM
- IC50 (Histone deacetylase): 53 nM
